Paper PMC4538536, “In Silico-Based High-Throughput Screen for Discovery of Novel Combinations for Tuberculosis Treatment” (Antimicrobial Agents and Chemotherapy, 2015)
Converted amounts (≈) assume the structure as drawn. Where two headings read alike, the source gives them in different places.

Tests used:
M. tuberculosis H37Rv [1] = test: In vitro bactericidal-effect analysis (CFU enumeration of checkerboard wells); format: cell-based, Mycobacterium tuberculosis; settings: single drug at its MIC (FIC of 1); positive = reduction in CFU
Method: For determining the extent of the bactericidal effect, sample wells which remained blue in the resazurin microtiter assay (REMA) and whose ΣFICs were within the synergistic-to-additive range (<0.7 for doublets and <1.5 for triplets) were plated on Middlebrook 7H10 agar medium and incubated at 37°C for 21 to 28 days, following which bacterial colonies were enumerated to obtain the net reduction in CFU in comparison to the counts for the untreated controls at the start of drug testing, as well as to that achieved when M. tuberculosis was exposed to each drug alone.

[2] = In vivo pharmacokinetics in infected mice (plasma, LC-MS/MS); set-up: species or system BALB/c mice; settings: mouse; for AUC(0-t) / Cmax: po, steady state, infected mice
Method: The drugs were formulated in 0.5% hydroxypropyl methyl cellulose (HPMC)–0.1% Tween 80 suspensions as 3- or 4-drug combinations. Formulations were prepared by weighing and adding each compound to the bottle, according to the design. Formulation vehicle was added, and the suspension was stirred overnight. Only uniform suspensions were used, while those that precipitated were abandoned. Formulations were prepared every week, and compound stability was estimated at the end of the week. Pharmacokinetics (PK) analysis was performed on infected mice on the 20th day of dosing. Blood samples were collected from each mouse at 0.5, 2, 4, 6, and 24 h after compound administration. Blood samples of about 30 μl were collected from mice in all groups by serial sampling via the saphenous vein into Microvette CB300 tubes (Starstedt, Germany) coated with EDTA, and plasma (10 μl) was separated following centrifugation. Plasma samples were stored at –20°C until analysis using liquid chromatography-tandem mass spectrometry (LC-MS/MS).
A 1-mg/ml stock solution of each compound was prepared in dimethyl sulfoxide (DMSO) for all of the analytes except PZA and LZD, for which the stock solution was 10 mg/ml in DMSO, and RIF, for which the stock solution was prepared in 50% acetonitrile in water. Three different sets of calibration standard (CS) combinations were prepared by 2-fold dilution of the stock solutions. CS set 1 contained analytes CLO, BDQ, PA824, PZA, and SQ109, CS set 2 contained analytes BTZ043, MXF, THI, EMB, and PZA, and CS set 3 contained LZD, INH, RIF, and PZA. A 16-point calibration curve was utilized for all analytes, and the standard curves ranged from 0.0005 to 20 μg/ml except for PZA and LZD, for which the standard curve range was 0.006 to 200 μg/ml. Plasma samples were precipitated by adding chilled acetonitrile (1:10, vol/vol) containing carbamazepine as an internal standard (10 ng/ml). Samples were vortexed and then centrifuged at 4,000 rpm for 30 min at 10°C. The resulting supernatant was mixed with the mobile phase (50% acetonitrile in water with 0.1% formic acid). Five microliters of the sample was injected on to a liquid chromatographic system (Acquity ultraperformance liquid chromatography [UPLC] system, Waters, Milford, MA) coupled to a triple-quadrupole mass spectrometer (Xevo TQ-S; Waters, Milford, MA). Samples were separated on an LC column (ACE 3 C18, 50 by 4.6 mm, 3 μm particle size; Advanced Chromatography Technologies, Aberdeen, Scotland) by isocratic elution with 40 parts of 20 mM ammonium formate containing 0.1% (vol/vol) formic acid and 60 parts of acetonitrile at a flow rate of 0.5 ml/min with a run time of 4 min. Samples were acquired in positive ion mode and detected by multiple reaction monitoring (MRM). The concentrations of the analyte were determined from a standard curve obtained by plotting known concentrations of the analyte against peak area ratios (analyte/internal standard peak response).
PK analyses of the plasma concentration-time relationships were performed with Phoenix software (version 6.2; Pharsight, USA). A noncompartmental analysis program, model 200, was used to calculate PK parameters. The maximum concentration of drug in plasma (Cmax), time to Cmax (Tmax), elimination half-life (t1/2), and area under the concentration-time curve (AUC) from time zero to infinity (AUC0–∞) were estimated. AUC was computed using the trapezoidal rule (linear up and log down), and the AUC0–∞ was considered only when the extrapolated AUC was not more than 20% of the original value. A minimum of three sample points in the terminal slope were used to calculate half-life.

M. tuberculosis H37Rv [3] = test: MIC determination, resazurin-based microplate assay; format: cell-based, Mycobacterium tuberculosis; settings: Mycobacterium tuberculosis, single drug
[4] = tested individually; SQ109 at 25 mg/kg of body weight, EMB at 100-mg/kg dose; cited from earlier work
[5] = BALB/c, plasma, 100 mg/kg, Group 8 triplet PA824 50/BDQ 25/EMB 100 mg/kg oral, read-out: AUC0-24 in Triplet
[6] = BALB/c, plasma, 100 mg/kg, Group 8 triplet PA824 50/BDQ 25/EMB 100 mg/kg oral, read-out: Cmax in Triplet
[7] = BALB/c, plasma, 100 mg/kg, Ref. regimen triplet INH 30/RIF 10/EMB 100 mg/kg oral, read-out: AUC0-24 in Triplet
[8] = BALB/c, plasma, 100 mg/kg, Ref. regimen triplet INH 30/RIF 10/EMB 100 mg/kg oral, read-out: Cmax in Triplet
[9] = BALB/c, plasma, 150 mg/kg, Group 8 quartet PA824 50/BDQ 25/EMB 100/PZA 150 mg/kg oral, read-out: AUC0-24 in Quartet
[10] = BALB/c, plasma, 150 mg/kg, Group 8 quartet PA824 50/BDQ 25/EMB 100/PZA 150 mg/kg oral, read-out: Cmax in Quartet
[11] = BALB/c, plasma, 150 mg/kg, Ref. regimen quartet INH 30/RIF 10/EMB 100/PZA 150 mg/kg oral, read-out: AUC0-24 in Quartet
[12] = BALB/c, plasma, 150 mg/kg, Ref. regimen quartet INH 30/RIF 10/EMB 100/PZA 150 mg/kg oral, read-out: Cmax in Quartet
[13] = BALB/c, plasma, 25 mg/kg, Group 6 triplet BTZ043 37.5/THI 800/SQ109 25 mg/kg oral, read-out: AUC0-24 in Triplet
[14] = BALB/c, plasma, 25 mg/kg, Group 6 triplet BTZ043 37.5/THI 800/SQ109 25 mg/kg oral, read-out: Cmax in Triplet

Row | Compound | ΔLog10 CFU/ml at the MIC (M. tuberculosis H37Rv [1]) [Log10 CFU/ml] | AUC(0-t) [2, 5] [ng·h/mL] | Cmax [2, 6] [ng/mL] | AUC(0-t) [2, 7] [ng·h/mL] | Cmax [2, 8] [ng/mL] | AUC(0-t) [2, 9] [ng·h/mL] | Cmax [2, 10] [ng/mL] | AUC(0-t) [2, 11] [ng·h/mL] | Cmax [2, 12] [ng/mL] | MIC (M. tuberculosis H37Rv [3]) [µM] | AUC(0-t) [2, 13] [ng·h/mL] | Cmax [2, 14] [ng/mL] | further results
1 | CC[C@@H](CO)NCCN[C@@H](CC)CO [Ethambutol] | 1.40 | 9900 ± 1600 | 2700 ± 200 | 7900 ± 2800 | 2200 ± 500 | 5700 ± 1100 | 1500 ± 300 | 6600 ± 1800 | 1700 ± 600 | 19.6 (≈ 4.01 µg/mL) |  |  | AUC ([2]; BALB/c, plasma, oral, SQ109 25 mg/kg, EMB 100 mg/kg, in 3- and 4-drug combinations, read-out: observed AUC in combinations): 4000 to 9900 ng·h/mL; AUC(0-t) ([2]; BALB/c, plasma, 25 mg/kg, Group 5 triplet EMB 100/BDQ 25/SQ109 25 mg/kg oral, read-out: AUC0-24 in Triplet): 4100 ± 1400 ng·h/mL; Cmax ([2]; BALB/c, plasma, 25 mg/kg, Group 5 triplet EMB 100/BDQ 25/SQ109 25 mg/kg oral, read-out: Cmax in Triplet): 1300 ± 600 ng/mL; AUC(0-t) ([2]; BALB/c, plasma, 130 mg/kg, Group 9 triplet EMB 100/SQ109 25/LZD 130 mg/kg oral, read-out: AUC0-24 in Triplet): 9600 ± 1600 ng·h/mL; Cmax ([2]; BALB/c, plasma, 130 mg/kg, Group 9 triplet EMB 100/SQ109 25/LZD 130 mg/kg oral, read-out: Cmax in Triplet): 1100 ± 200 ng/mL; AUC(0-t) ([2]; BALB/c, plasma, 150 mg/kg, Group 5 quartet EMB 100/BDQ 25/SQ109 25/PZA 150 mg/kg oral, read-out: AUC0-24 in Quartet): 4000 ± 1100 ng·h/mL; Cmax ([2]; BALB/c, plasma, 150 mg/kg, Group 5 quartet EMB 100/BDQ 25/SQ109 25/PZA 150 mg/kg oral, read-out: Cmax in Quartet): 1200 ± 500 ng/mL; plasma exposure in combination compared with individual (reported) exposure ([2]; in vivo): lower; reported AUC [4]: 28000 ng·h/mL
2 | NNC(=O)c1ccncc1 [Isoniazid] | 1.02 |  |  | 19800 ± 4700 | 10800 ± 2900 |  |  | 12000 ± 3400 | 7000 ± 3200 | 0.22 (≈ 0.0302 µg/mL) |  |  | 
3 | CO[C@H]1/C=C/O[C@@]2(C)Oc3c(C)c(O)c4c(O)c(c(/C=N/N5CCN(C)CC5)c(O)c4c3C2=O)NC(=O)/C(C)=C\C=C\[C@H](C)[C@H](O)[C@@H](C)[C@@H](O)[C@@H](C)[C@H](OC(C)=O)[C@@H]1C [Rifampin] | 1.24 |  |  | 25400 ± 7300 | 4900 ± 1300 |  |  | 22200 ± 8600 | 5500 ± 3000 | 0.009 (≈ 0.00741 µg/mL) |  |  | 
4 | C[C@H]1COC2(CCN(c3nc(=O)c4cc(C(F)(F)F)cc([N+](=O)[O-])c4s3)CC2)O1 [BTZ043] | 1.40 |  |  |  |  |  |  |  |  | 0.0009 (≈ 0.000388 µg/mL) | 15000 ± 6200 | 2100 ± 400 | AUC(0-t) ([2]; BALB/c, plasma, 200 mg/kg, Group 3 triplet BTZ043 37.5/SQ109 25/MXF 200 mg/kg oral, read-out: AUC0-24 in Triplet): 11100 ± 5000 ng·h/mL; Cmax ([2]; BALB/c, plasma, 200 mg/kg, Group 3 triplet BTZ043 37.5/SQ109 25/MXF 200 mg/kg oral, read-out: Cmax in Triplet): 2300 ± 900 ng/mL
5 | CC(=O)Nc1ccc(/C=N/NC(N)=S)cc1 [Thiacetazone] | 0.76 |  |  |  |  |  |  |  |  | 8.47 (≈ 2 µg/mL) | 87000 ± 52100 | 8500 ± 2800 | AUC(0-t) ([2]; BALB/c, plasma, 150 mg/kg, Group 6 quartet BTZ043 37.5/THI 800/SQ109 25/PZA 150 mg/kg oral, read-out: AUC0-24 in Quartet): 68000 ± 16000 ng·h/mL; Cmax ([2]; BALB/c, plasma, 150 mg/kg, Group 6 quartet BTZ043 37.5/THI 800/SQ109 25/PZA 150 mg/kg oral, read-out: Cmax in Quartet): 5100 ± 400 ng/mL
6 | O=[N+]([O-])c1cn2c(n1)OC[C@@H](OCc1ccc(OC(F)(F)F)cc1)C2 [PA824] | 1.07 | 119000 ± 13800 | 13300 ± 500 |  |  | 66400 ± 19000 | 9800 ± 3600 |  |  | 1.09 (≈ 0.392 µg/mL) |  |  | AUC(0-t) ([2]; BALB/c, plasma, 50 mg/kg, Group 1 triplet CFZ 20/BDQ 25/PA824 50 mg/kg oral, read-out: AUC0-24 in Triplet): 76700 ± 18500 ng·h/mL; Cmax ([2]; BALB/c, plasma, 50 mg/kg, Group 1 triplet CFZ 20/BDQ 25/PA824 50 mg/kg oral, read-out: Cmax in Triplet): 11200 ± 2400 ng/mL; AUC(0-t) ([2]; BALB/c, plasma, 50 mg/kg, Group 2 triplet SQ109 25/BDQ 25/PA824 50 mg/kg oral, read-out: AUC0-24 in Triplet): 86200 ± 8600 ng·h/mL; Cmax ([2]; BALB/c, plasma, 50 mg/kg, Group 2 triplet SQ109 25/BDQ 25/PA824 50 mg/kg oral, read-out: Cmax in Triplet): 9300 ± 2300 ng/mL; AUC(0-t) ([2]; BALB/c, plasma, 150 mg/kg, Group 1 quartet CFZ 20/BDQ 25/PA824 50/PZA 150 mg/kg oral, read-out: AUC0-24 in Quartet): 60900 ± 8000 ng·h/mL; Cmax ([2]; BALB/c, plasma, 150 mg/kg, Group 1 quartet CFZ 20/BDQ 25/PA824 50/PZA 150 mg/kg oral, read-out: Cmax in Quartet): 7800 ± 1100 ng/mL; AUC(0-t) ([2]; BALB/c, plasma, 150 mg/kg, Group 2 quartet SQ109 25/BDQ 25/PA824 50/PZA 150 mg/kg oral, read-out: AUC0-24 in Quartet): 60700 ± 10000 ng·h/mL; Cmax ([2]; BALB/c, plasma, 150 mg/kg, Group 2 quartet SQ109 25/BDQ 25/PA824 50/PZA 150 mg/kg oral, read-out: Cmax in Quartet): 7300 ± 1100 ng/mL; AUC(0-t) ([2]; BALB/c, plasma, 150 mg/kg, Group 7 quartet PA824 50/BDQ 25/MXF 400/PZA 150 mg/kg oral, read-out: AUC0-24 in Quartet): 92100 ± 12700 ng·h/mL; Cmax ([2]; BALB/c, plasma, 150 mg/kg, Group 7 quartet PA824 50/BDQ 25/MXF 400/PZA 150 mg/kg oral, read-out: Cmax in Quartet): 6000 ± 800 ng/mL; AUC(0-t) ([2]; BALB/c, plasma, 400 mg/kg, Group 7 triplet PA824 50/BDQ 25/MXF 400 mg/kg oral, read-out: AUC0-24 in Triplet): 134000 ± 41700 ng·h/mL; Cmax ([2]; BALB/c, plasma, 400 mg/kg, Group 7 triplet PA824 50/BDQ 25/MXF 400 mg/kg oral, read-out: Cmax in Triplet): 8400 ± 1000 ng/mL
